Test results taken from PMC10126473 (Frontiers in Pharmacology, 2023).
Read-outs that look alike come from different tables or passages of the source.

Legend:
[1] = Metabolic stability and biotransformation in liver microsomes; settings: for Liver Vmax: in vitro
Experimental: (§3) The incubation was carried out at 37°C for 15, 30, and 60 min. The reaction in plasma or liver microsomes was quenched by adding 200 μL of cold acetonitrile (containing 100 ng/mL tolbutamide as internal standard).
(§4) The mc was the microsome concentration used in the incubation (0.5 mg/mL). The substrate disappearance half-life (t1/2) was estimated by regression analysis of the semi-logarithmic (ln Conc vs. time) plots. […] The Vmax, in vitro,app, PDN-total and Km for PDN depletion in liver microsomes were estimated by the Michaelis-Menten model using GraphPad Prism version 8.

[2] = as above; settings: for Liver Vmax: in vitro; remark: listed apart in the source
Experimental: as §3, §4

[3] = Metabolic stability in plasma; settings: for Plasma k: hamster, in vitro
[4] = Incubation in liver cytosolic fractions; format: in vitro ADME; settings: mouse, hamster, human, read-out: in vitro metabolic half-life (t1/2)
Experimental: The in vitro metabolic stability of PDN was determined in the plasma and liver fractions of three species. […] Based on the formation of Nc in plasma, about 51%, 16%, and 10% of depleted PDN were converted to Nc in mouse, hamster, and human plasma, respectively. PDN was also metabolized in the liver microsomes. However, due to the fast metabolism of formed Nc in liver microsomes (sequential metabolism), only a trace amount of Nc was detected after incubation of PDN. Therefore, the metabolism kinetics of PDN was investigated to obtain the Vmax, in vitro, app and Km values of PDN depletion (Table 3).

[5] = Metabolic stability and biotransformation in liver microsomes; settings: for Liver Vmax: in vitro; remark: listed apart in the source
Experimental: as §3, §4

[6] = Kinetic aqueous solubility (Pion µSOL assay); settings: pH 7.4
Experimental: Samples were incubated at room temperature for 6 h and vacuum-filtered using Tecan Te-Vac to remove any precipitates. The concentration of the compound in the filtrate was measured via UV absorbance (λ: 250–498 nm). […] All compounds were tested in duplicates. The kinetic solubility (µg/mL) of compounds was calculated using the µSOL Evolution software.

[7] = PBPK model (GastroPlus): simulation and model parameters incl. permeability surface product and scaled metabolic kinetics, mouse; settings: for Liver Vmax / Plasma k: in vivo (scaled)
Experimental: (§1) CL in vitro,app expressed as mL/min/mg microsomes were scaled to the predicted CLintrinsic using scaling factor (SF), microsome level and liver weight as indicated below: CLintrinsic=CLin vitro,app×SF×liver weight×microsome level per gram liver
(§2) All modeling and simulation were carried out using GastroPlus version 9.5 (Simulations Plus Inc., CA). Physiochemical parameters including blood-to-plasma ratio (Rbp), pKa, and logP were predicted by ADMET predictor (Simulations Plus Inc., CA). Physiologies of all species, including organ weights, volumes, tissue compositions, and blood perfusion rates, were generated by the program’s internal module. Tissue intracellular unbound fractions were generated by GastroPlus based on predicted or experimentally determined physiochemical and chemical-biological parameters including pKa, logP, plasma unbound fractions (Fup), Rbp, solubility, and PAMPA permeability. The PBPK model structure is illustrated in Figure 2 and its parameters are summarized in Supplementary Tables S3–6. The default absorption and dissolution model was applied and effective intestine permeability was predicted by a built-in correlation from the experimental PAMPA permeability result. Parameters including partition coefficients in tissue (Kp), CLintrinsic, and permeability surface area product (PStc) were estimated by fitting the model to experimental data using the optimization module in GastroPlus with objective function weights at 1/(y + ŷ)^2, where y is the observed value and ŷ is the predicted value.
Model parameter estimation of all plasma-tissue partition coefficients (Kp) was performed simultaneously using both the IV and PO datasets. […] The experimentally determined pharmacokinetic profiles were compared with the model simulations.

[8] = system: SARS-CoV-2; set-up: method as in Huang et al., 2022; settings: cytopathic effect assay and cytotoxicity counter screen; ref Huang et al., 2022; cited from earlier work
[9] = Metabolic stability in plasma; settings: for Plasma k: mouse, in vitro
[10] = Plasma protein binding, equilibrium dialysis (RED device); format: in vitro ADME, human; settings: read-out: Fup (unbound fraction in plasma)
Experimental: Plasma protein binding was determined with equilibrium dialysis method using the Rapid Equilibration Dialysis (RED) device (Thermo Fisher Catalog # 90006). The assay was performed using manufacturer’s procedures. Briefly, plasma spiked with a test compound (5 µM) was added to the plasma chamber of the RED device. Blank potassium phosphate buffer (100 mM) was added to the buffer chamber of the RED device and the plate was incubated at 37°C. Aliquots of the buffer and the plasma were taken at 0 and 4 h, and the concentrations of free and bound test compounds were determined using the previously described LC-MS method ([Shah et al., 2016]).

[11] = PBPK model (GastroPlus): simulation and model parameters incl. permeability surface product and scaled metabolic kinetics, hamster; settings: for Liver Vmax / Plasma k: in vivo (scaled)
Experimental: as §1, §2
Experimental measurements of hamster plasma pharmacokinetics and lung concentrations were used in the model validation.

[12] = conversion to Nc, in vivo, predicted from in vitro liver parameters

## O=C(Nc1ccc([N+](=O)[O-])cc1Cl)c1cc(Cl)ccc1OC(=O)N1CCNCC1 [PDN]
[1]; conversion to Nc, human
  Liver Vmax: 0.0002 mg/s/mg microsomes
[1]; conversion to Nc, human, in vitro (in vitro liver parameters)
  Gut Vmax: 0.00024 mg/s/mg microsomes
[1]; conversion to Others, human
  Liver Vmax: 0.0106 mg/s/mg microsomes
[1]; human liver microsomes
  Vmax in vitro,app, PDN-total: 0.365 ± 0.187 nmol/min/mg
[1]; human, pH 7.4
  Km: 33.8 ± 29.1 µM
[2]; conversion to Nc, hamster
  Liver Vmax: 0.0085 mg/s/mg microsomes
[2]; conversion to Nc, hamster, in vitro (in vitro liver parameters)
  Gut Vmax: 0.0085 mg/s/mg microsomes
[2]; conversion to Others, hamster
  Liver Vmax: 0.1059 mg/s/mg microsomes
[2]; hamster liver microsomes
  Vmax in vitro,app, PDN-total: 1.238 ± 0.133 nmol/min/mg
[2]; hamster, pH 7.4
  Km: 10.8 ± 3.04 µM
[3]; conversion to Nc
  Plasma k: 0.0045 s⁻¹
[3]; conversion to Others
  Plasma k: 0.0146 s⁻¹
[3]; hamster plasma, 37°C
  kin vitro,app, PDN-total (total depletion of PDN): 0.0191 ± 0.0044 min⁻¹
[4]
  half-life: > 2 h
[5]; conversion to Nc, mouse
  Liver Vmax: 0.00095 mg/s/mg microsomes
[5]; conversion to Nc, mouse, in vitro (in vitro liver parameters)
  Gut Vmax: 0.00095 mg/s/mg microsomes
[5]; conversion to Others, mouse
  Liver Vmax: 0.1484 mg/s/mg microsomes
[5]; mouse liver microsomes
  Vmax in vitro,app, PDN-total: 1.327 ± 0.106 nmol/min/mg
[5]; mouse, pH 7.4
  Km: 20.2 ± 3.31 µM
[6]
  increase in solubility compared with Nc: 40 fold
  solubility kinetic at 6 h: > 43.5 µg/mL
[7]; conversion to Nc
  Liver Vmax: 0.0015 mg/s/mg microsomes
  Plasma k: 0.0067 s⁻¹
[7]; [12]
  Gut Vmax: 0.00004 mg/s/mg microsomes
[7]; conversion to Others
  Liver Vmax: 0.2310 mg/s/mg microsomes
  Plasma k: 0.0080 s⁻¹
[8]
  in vitro activity against SARS-CoV-2: showed in vitro activity against SARS-CoV-2
[9]; conversion to Nc
  Plasma k: 0.0058 s⁻¹
[9]; conversion to Others
  Plasma k: 0.0062 s⁻¹
[9]; mouse plasma, 37°C
  kin vitro,app, PDN-total (total depletion of PDN): 0.0120 ± 0.0015 min⁻¹
[10]; human and rodent (rodent predicted), rodent (predicted) and human plasma
  fraction unbound at 4 h, 5 µM: 0.12 to 0.15
[10]; human, human plasma, experimental
  fraction unbound at 4 h, 5 µM: 0.152
[11]; conversion to Nc
  Liver Vmax: 0.0130 mg/s/mg microsomes
  Plasma k: 0.0052 s⁻¹
[11]; [12]
  Gut Vmax: 0.0004 mg/s/mg microsomes
[11]; conversion to Others
  Liver Vmax: 0.1649 mg/s/mg microsomes
  Plasma k: 0.0189 s⁻¹
